Tests used:
[1] = target: T1, human adenosine A1 receptor (Homo sapiens, UniProt P30542); assay: Adenosine A1 Receptor Functional Assay (A1GAL2); assay type: cell-based; settings: CHO-K1 cells overexpressing human A1 receptor, cAMP inducible beta-galactosidase reporter; antagonist mode vs 4 nM r-PIA/1 uM Forskolin challenge
T1 construct: expressed in transfected cells; host or cells: CHO-K1 cells with cAMP inducible beta-galactosidase reporter gene
T1 sequence (P30542 1-326): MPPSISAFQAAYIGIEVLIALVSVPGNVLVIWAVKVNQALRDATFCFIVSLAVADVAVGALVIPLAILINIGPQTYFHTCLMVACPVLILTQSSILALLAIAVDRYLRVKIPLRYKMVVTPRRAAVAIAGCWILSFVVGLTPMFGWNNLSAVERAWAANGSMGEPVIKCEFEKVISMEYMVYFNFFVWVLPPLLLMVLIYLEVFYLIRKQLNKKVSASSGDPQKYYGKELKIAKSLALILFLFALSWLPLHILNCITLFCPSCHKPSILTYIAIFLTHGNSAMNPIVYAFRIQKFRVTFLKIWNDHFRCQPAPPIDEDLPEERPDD
Protocol: Adenosine A1 Receptor Functional Assay (A1GAL2)
To initiate the functional assay, cryopreserved CHO—K1 cells overexpressing the human adenosine A1 receptor and containing a cAMP inducible beta-galactosidase reporter gene were thawed, centrifuged, DMSO containing media removed, and then seeded with fresh culture media into clear 384-well tissue culture treated plates (BD #353961) at a concentration of 10K cells/well. Prior to assay, these plates were cultured for two days at 37° C., 5% CO2, 90% Rh. On the day of the functional assay, culture media was removed and replaced with 45 μL assay medium (Hams/F-12 Modified (Mediatech # 10-080CV) supplemented w/0.1% BSA). Test compounds were diluted and 11 point curves created at a 1000× concentration in 100% DMSO. Immediately after addition of assay media to the cell plates, […] of the appropriate test compound antagonist or agonist control curves were added to cell plates using a Cartesian Hummingbird. Compound curves were allowed to incubate at room temperature on cell plates for approximately 15 minutes before addition of a 4 nM r-PIA (Sigma P4532)/1 uM Forskolin (Sigma F3917) agonist challenge (5 μL volume). A control curve of r-PIA in 1 uM Forskolin, a DMSO/Media control, and a single dose of Forskolin were also included on each plate. After additions, cell plates were allowed to incubate at 37° C., 5% CO2, 90% Rh for 5.5-6 hours. After incubation, media was removed, and cell plates were washed 1×50 μL with DPBS w/o Ca & Mg (Mediatech 21-031-CV). Into dry wells, 20 μL of 1× Reporter Lysis Buffer (Promega E3971 (diluted in dH2O from 5× stock)) was added to each well and plates frozen at −20° C. overnight. For β-galactosidase enzyme colorimetric assay, plates were thawed out at room temperature and 20 μL 2× assay buffer (Promega) was added to each well. Color was allowed to develop at 37° C., 5% CO2, 90% Rh for 1-1.5 h or until reasonable signal appeared. The colorimetric reaction was stopped with the addition of 60 μL/well 1M sodium carbonate. Plates were counted at 405 nm on a SpectraMax Microplate Reader (Molecular Devices). Data was analyzed in Microsoft Excel and IC/EC50 curves were fit using a standardized macro.

[2] = target: T2, human adenosine A2A receptor (Homo sapiens, UniProt P29274); assay: Adenosine A2A Receptor Functional Assay (A2AGAL2); assay type: cell-based; settings: for IC50: CHO-K1 cells overexpressing human A2A receptor, cAMP inducible beta-galactosidase reporter, antagonist mode vs 15 nM NECA challenge; for A1/A2A: selectivity ratio of A1Gal2 value to A2AGal2 value
T2 construct: expressed in transfected cells; host or cells: CHO-K1 cells with cAMP inducible beta-galactosidase reporter gene
Protocol: Adenosine A2A Receptor Functional Assay (A2AGAL2)
To initiate the functional assay, cryopreserved CHO—K1 cells overexpressing the human adenosine A2A receptor and containing a cAMP inducible beta-galactosidase reporter gene were thawed, centrifuged, DMSO containing media removed, and then seeded with fresh culture media into clear 384-well tissue culture treated plates (BD #353961) at a concentration of 10K cells/well. Prior to assay, these plates were cultured for two days at 37° C., 5% CO2, 90% Rh. On the day of the functional assay, culture media was removed and replaced with 45 μL assay medium (Hams/F-12 Modified (Mediatech #10-080CV) supplemented w/0.1% BSA). Test compounds were diluted and 11 point curves created at a 1000× concentration in 100% DMSO. Immediately after addition of assay media to the cell plates, 50 nL of the appropriate test compound antagonist or agonist control curves were added to cell plates using a Cartesian Hummingbird. Compound curves were allowed to incubate at room temperature on cell plates for approximately 15 minutes before addition of a 15 nM NECA (Sigma E2387) agonist challenge (5 μL volume). A control curve of NECA, a DMSO/Media control, and a single dose of Forskolin (Sigma F3917) were also included on each plate. After additions, cell plates were allowed to incubate at 37° C., 5% CO2, 90% Rh for 5.5-6 hours. After incubation, media were removed, and cell plates were washed 1×50 μL with DPBS w/o Ca & Mg (Mediatech 21-031-CV). Into dry wells, 20 μL of 1× Reporter Lysis Buffer (Promega E3971 (diluted in dH2O from 5× stock)) was added to each well and plates frozen at −20° C. overnight. For β-galactosidase enzyme colorimetric assay, plates were thawed out at room temperature and 20 μL 2× assay buffer (Promega) was added to each well. Color was allowed to develop at 37° C., 5% CO2, 90% Rh for 1-1.5 h or until reasonable signal appeared. The colorimetric reaction was stopped with the addition of 60 μL/well 1M sodium carbonate. Plates were counted at 405 nm on a SpectraMax Microplate Reader (Molecular Devices). Data was analyzed in Microsoft Excel and IC/EC50 curves were fit using a standardized macro.

T2 sequence (P29274 whole entry): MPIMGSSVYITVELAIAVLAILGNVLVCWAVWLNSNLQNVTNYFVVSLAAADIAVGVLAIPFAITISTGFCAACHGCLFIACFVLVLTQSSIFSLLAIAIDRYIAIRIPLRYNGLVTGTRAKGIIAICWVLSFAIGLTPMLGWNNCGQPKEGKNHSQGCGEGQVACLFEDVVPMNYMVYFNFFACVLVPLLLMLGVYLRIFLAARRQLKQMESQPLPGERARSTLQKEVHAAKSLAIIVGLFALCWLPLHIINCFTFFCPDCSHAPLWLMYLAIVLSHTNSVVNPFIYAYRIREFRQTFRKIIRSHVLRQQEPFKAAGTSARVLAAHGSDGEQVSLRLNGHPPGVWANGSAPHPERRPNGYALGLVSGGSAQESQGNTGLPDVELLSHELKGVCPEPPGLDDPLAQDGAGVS

| Structure (SMILES) | IC50 [1] | IC50 [2] | A1/A2A [2] |
| --- | --- | --- | --- |
| CC(C)CCN1CCN(c2ccc(-c3cccc4c3-c3nc(N)nc(-c5ccc(F)cc5)c3C4=O)cn2)CC1 [Example 11, 2-Amino-4-(4-fluoro-phenyl)-9-{6-[4-(3-methyl-butyl)-piperazin-1-yl]-pyridin-3-yl}-indeno[1,2-d]pyrimidin-5-one] | 1000 nM | 18 nM | 55.5556 |
| Nc1nc(-c2ccccc2)c2c(n1)-c1c(cccc1-c1ccc(N3CCN(Cc4ccccc4)CC3)nc1)C2=O [Example 8, 2-Amino-9-[6-(4-benzyl-piperazin-1-yl)-pyridin-3-yl]-4-phenyl-indeno [1,2-d]pyrimidin-5-one] | 560 nM | 5.6 nM | 100 |
| Nc1nc(-c2ccc(F)cc2)c2c(n1)-c1c(cccc1-c1cnn(CCN3CCOCC3)c1)C2=O [Example 2, 2-Amino-4-(4-fluoro-phenyl)-9-[1-(2-morpholin-4-yl-ethyl)-1H-pyrazol-4-yl]-indeno[1,2-d]pyrimidin-5-one] | 2030 nM | 12.7 nM | 160.288 |
| Cc1c(-c2cccc3c2-c2nc(N)nc(-c4ccccc4)c2C3=O)cnn1-c1ccccc1 [Example 7, 2-Amino-9-(5-methyl-1-phenyl-1H-pyrazol-4-yl)-4-phenyl-indeno [1,2-d]pyrimidin-5-one] | 870 nM | 17 nM | 51.1765 |
| Cc1nc(-c2ccccc2)sc1-c1cccc2c1-c1nc(N)nc(-c3ccccc3)c1C2=O [Example 1, 2-Amino-9-(4-methyl-2-phenyl-thiazol-5-yl)-4-phenyl-indeno[1,2-d]pyrimidin-5-one] | 7500 nM | 7.1 nM | 1056.34 |
| Nc1nc(-c2ccc(F)cc2)c2c(n1)-c1c(cccc1-c1ccc(N3CCN(CC4CC4)CC3)nc1)C2=O [Example 9, 2-Amino-9-[6-(4-cyclopropylmethyl-piperazin-1-yl)-pyridin-3-yl]-4-(4-fluoro-phenyl)-indeno[1,2-d]pyrimidin-5-one] | 580 nM | 7.9 nM | 73.4177 |
| CCOC(=O)Cn1cc(-c2cccc3c2-c2nc(N)nc(-c4ccc(F)cc4)c2C3=O)cn1 [Example 6, {4-[2-Amino-4-(4-fluoro-phenyl)-5-oxo-5H-indeno[1,2-d]pyrimidin-9-yl]-pyrazol-1-yl}-acetic acid ethyl ester] | 225 nM | 4.2 nM | 53.6847 |

The remaining molecules from weak to strong by IC50 [1], led by results:

| IC50 [1] | IC50 [2] | A1/A2A [2] | Structure (SMILES) |
| --- | --- | --- | --- |
| 5400 nM | 50 nM | 108 | Cc1nc(-c2ccc(C(F)(F)F)cc2)sc1-c1cccc2c1-c1nc(N)nc(-c3ccc(F)cc3)c1C2=O [Example 3, 2-Amino-4-(4-fluoro-phenyl)-9-[4-methyl-2-(4-trifluoromethyl-phenyl)-thiazol-5-yl]-indeno[1,2-d]pyrimidin-5-one] |
| 920 nM | 17 nM |  | Cc1nc(-c2ccccc2)sc1-c1cccc2c1-c1nc(N)nc(-c3ccc(F)cc3)c1C2=O [Example 5, 2-Amino-4-(4-fluoro-phenyl)-9-(4-methyl-2-phenyl-thiazol-5-yl)-indeno[1,2-d]pyrimidin-5-one] |
| 190 nM | 3 nM | 63.3333 | Cc1cc(-c2cccc3c2-c2nc(N)nc(-c4ccccc4)c2C3=O)cnc1N1CCN(C)CC1 [Example 10, 2-Amino-9-[5-methyl-6-(4-methyl-piperazin-1-yl)-pyridin-3-yl]-4-phenyl-indeno [1,2-d]pyrimidin-5-one] |
| 120 nM | 1.3 nM | 92.3077 | N#Cc1ccc(-c2cccc3c2-c2nc(N)nc(-c4ccccc4)c2C3=O)s1 [Example 4, 5-(2-Amino-5-oxo-4-phenyl-5H-indeno[1,2-d]pyrimidin-9-yl)-thiophene-2-carbonitrile] |
